# Where no end group is shown, it is not given here.
# Tests used:
# [1] = tested on: cM1, cM2, cM3 and the dwf1 mutant; experiment: exogenous application of brassinolide to dwarf plants; format: in vivo, Arabidopsis; conditions: data not shown
# Description: To ensure a reliable comparison of the complementary effects of normal DWF1 and the three mutants, T2 plants with similar expression levels were compared (FIG. 3b-d). […] Seeds were produced in most of the slightly shorter siliques of cM1 plants (FIG. 3b, c). […] The dwarf phenotypes of cM1, cM2, cM3 and the dwf1 mutant were rescued by exogenous application of brassinolide (data not shown).
# [2] = tested on: DWF4 null mutant; experiment: complementation of DWF4 null mutant or overexpression, plant growth; format: in vivo, Arabidopsis
# Description: For example, partial dwarf Arabidopsis plants were generated through manipulation of the DWF4 CaMBD regulatory domain.
molecule,measurement,setting,value
CC(C)[C@H](C)[C@@H](O)[C@H](O)[C@@H](C)[C@H]1CC[C@H]2[C@@H]3COC(=O)[C@H]4C[C@H](O)[C@H](O)C[C@]4(C)[C@H]3CC[C@]12C [brassinolide],rescue of dwarf phenotypes,[1],rescued
DWF4 mutant having a L to D change at amino acid 21: DWF4 with L to D change at aa 21 within the N-terminal CaMBD (PSLLSDLLFLILLKRRNRKTRFNLP; not fully specified; listed as Arabidopsis thaliana),plant growth phenotype,[2]; complementing a DWF4 null mutant,semi-dwarf
mutant having a L to V change at amino acid 28: DWF4 with L to V change at aa 28 within the N-terminal CaMBD (PSLLSLLLFLILVKRRNRKTRFNLP; listed as Arabidopsis thaliana),plant growth phenotype,[2]; overexpression,enhanced growth
